Assay results taken from ChEMBL document CHEMBL4706550, “Design, synthesis and biological activities of piperidine-spirooxadiazole derivatives as α7 nicotinic receptor antagonists” (Eur J Med Chem, 2020).
Activity calls are given as the source filed them. The rule behind the calls is not given here.

Columns and labels:
[1] = biological target: T1, Neuronal acetylcholine receptor subunit alpha-7 (Homo sapiens, UniProt P36544); assay: Antagonist activity at human alpha7 nAChR expressed in Xenopus laevis oocytes assessed as inhibition of Ach-induced current at 100 uM measured at holding potential of -90 mV by two electrode voltage-clamp assay relative to control; assay type: cell-based; details: Oocyte
[2] = biological target: T1, Neuronal acetylcholine receptor subunit alpha-7; assay: Antagonist activity at human alpha7 nAChR expressed in Xenopus laevis oocytes assessed as inhibition of Ach-induced current at 30 uM measured at holding potential of -90 mV by two electrode voltage-clamp assay relative to control; assay type: cell-based; details: Oocyte
[3] = biological target: T1, Neuronal acetylcholine receptor subunit alpha-7; assay: Antagonist activity at human alpha7 nAChR expressed in Xenopus laevis oocytes assessed as inhibition of Ach-induced current measured at holding potential of -90 mV by two electrode voltage-clamp assay; assay type: cell-based, Oocyte
[4] = biological target: T2, Neuronal acetylcholine receptor; alpha3/beta4 (Rattus norvegicus) (UniProt P04757+P12392); assay: Antagonist activity at rat alpha3beta4 nAChR expressed in Xenopus laevis oocytes assessed as effect on nAChR current measured at holding potential of -90 mV by two electrode voltage-clamp assay; assay type: cell-based; details: Oocyte, dose 10.0 µM
[5] = biological target: T3, Neuronal acetylcholine receptor; alpha4/beta2 (Rattus norvegicus) (UniProt P09483+P12390); assay: Antagonist activity at rat alpha4beta2 nAChR expressed in Xenopus laevis oocytes assessed as effect on nAChR current at 10 uM measured at holding potential of -90 mV by two electrode voltage-clamp assay; assay type: cell-based; details: Oocyte
[6] = biological target: T2, Neuronal acetylcholine receptor; alpha3/beta4 (Rattus norvegicus); assay: Antagonist activity at rat alpha3beta4 nAChR expressed in Xenopus laevis oocytes assessed as inhibition of Ach-induced current at 10 uM measured at holding potential of -90 mV by two electrode voltage-clamp assay relative to control; assay type: cell-based; details: Oocyte
[7] = biological target: T3, Neuronal acetylcholine receptor; alpha4/beta2 (Rattus norvegicus); assay: Antagonist activity at rat alpha4beta2 nAChR expressed in Xenopus laevis oocytes assessed as inhibition of Ach-induced current at 10 uM measured at holding potential of -90 mV by two electrode voltage-clamp assay relative to control; assay type: cell-based; details: Oocyte
[8] = biological target: Neuronal acetylcholine receptor; alpha4/beta2 (Rattus norvegicus, UniProt P09483+P12390); assay: Antagonist activity at rat alpha4beta2 nAChR expressed in Xenopus laevis oocytes assessed as inhibition of Ach-induced current measured at holding potential of -90 mV by two electrode voltage-clamp assay; assay type: cell-based, Oocyte
[9] = Selectivity index, ratio of IC50 for rat alpha4beta2 nAChR expressed in Xenopus laevis oocytes to IC50 for human alpha7 nAChR expressed in Xenopus laevis oocytes; assay type: cell-based

T1 sequence (P36544 whole entry): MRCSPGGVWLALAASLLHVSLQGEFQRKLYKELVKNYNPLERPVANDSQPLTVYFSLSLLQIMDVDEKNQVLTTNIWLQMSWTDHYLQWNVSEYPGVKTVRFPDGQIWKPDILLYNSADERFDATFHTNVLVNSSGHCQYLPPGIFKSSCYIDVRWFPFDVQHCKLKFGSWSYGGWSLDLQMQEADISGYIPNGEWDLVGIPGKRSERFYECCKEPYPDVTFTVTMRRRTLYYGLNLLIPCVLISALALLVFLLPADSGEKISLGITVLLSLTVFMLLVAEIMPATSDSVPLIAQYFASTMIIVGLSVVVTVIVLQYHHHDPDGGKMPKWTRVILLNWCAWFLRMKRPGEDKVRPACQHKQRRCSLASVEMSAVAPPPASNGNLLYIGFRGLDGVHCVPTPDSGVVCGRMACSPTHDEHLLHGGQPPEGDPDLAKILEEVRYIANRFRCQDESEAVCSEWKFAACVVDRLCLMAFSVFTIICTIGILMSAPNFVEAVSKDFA
Sequence of Neuronal acetylcholine receptor; alpha4/beta2 (P09483 whole entry): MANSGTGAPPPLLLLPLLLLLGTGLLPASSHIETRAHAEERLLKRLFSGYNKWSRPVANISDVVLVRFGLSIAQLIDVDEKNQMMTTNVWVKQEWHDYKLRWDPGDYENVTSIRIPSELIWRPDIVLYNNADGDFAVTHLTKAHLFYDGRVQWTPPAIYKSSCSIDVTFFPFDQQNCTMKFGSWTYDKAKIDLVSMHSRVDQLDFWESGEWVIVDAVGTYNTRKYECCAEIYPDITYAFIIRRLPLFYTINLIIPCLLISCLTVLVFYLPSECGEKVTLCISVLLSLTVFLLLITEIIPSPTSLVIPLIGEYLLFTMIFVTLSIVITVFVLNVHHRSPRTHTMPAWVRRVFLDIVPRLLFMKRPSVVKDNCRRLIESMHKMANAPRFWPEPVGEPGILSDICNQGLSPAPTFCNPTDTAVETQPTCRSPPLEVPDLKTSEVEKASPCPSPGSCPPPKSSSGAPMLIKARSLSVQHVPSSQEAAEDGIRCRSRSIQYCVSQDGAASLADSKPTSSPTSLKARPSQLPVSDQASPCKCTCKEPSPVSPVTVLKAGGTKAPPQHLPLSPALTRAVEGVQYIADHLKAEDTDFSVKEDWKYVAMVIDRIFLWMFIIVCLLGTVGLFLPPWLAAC
Sequence of Neuronal acetylcholine receptor; alpha4/beta2 (P12390 whole entry): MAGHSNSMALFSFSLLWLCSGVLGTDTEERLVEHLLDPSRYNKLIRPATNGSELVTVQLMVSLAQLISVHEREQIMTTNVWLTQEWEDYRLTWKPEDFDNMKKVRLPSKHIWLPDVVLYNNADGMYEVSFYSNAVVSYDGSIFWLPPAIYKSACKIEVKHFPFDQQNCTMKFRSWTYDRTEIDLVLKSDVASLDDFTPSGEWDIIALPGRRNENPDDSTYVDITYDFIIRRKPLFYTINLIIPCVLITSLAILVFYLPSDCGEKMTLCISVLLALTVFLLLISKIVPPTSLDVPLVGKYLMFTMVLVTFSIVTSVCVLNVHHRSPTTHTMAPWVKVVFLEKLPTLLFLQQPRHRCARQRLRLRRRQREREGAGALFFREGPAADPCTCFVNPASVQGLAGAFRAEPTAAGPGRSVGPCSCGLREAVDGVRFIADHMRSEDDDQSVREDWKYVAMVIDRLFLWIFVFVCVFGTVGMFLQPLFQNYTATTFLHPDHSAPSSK

inhibition ([1]; filed as antagonist)	inhibition [2]	inhibition ([2]; filed as antagonist)	Structure (SMILES)	further results
58.1%	inactive		CCOC(=O)N1CCC2(CC1)NC(c1ccc(Br)cc1)=NO2	
69.8%	inactive		c1ccc(CN2CCC3(CC2)NC(c2n[nH]c4ccccc24)=NO3)cc1	
87.2%		61.8%	Nc1cccc(-c2ccc(C3=NOC4(CCN(Cc5ccccc5)CC4)N3)cn2)c1	
73%	inactive		COc1cc(OC)cc(-c2ccc(C3=NOC4(CCN(Cc5ccccc5)CC4)N3)cc2)c1	
75.4%	inactive		Cc1cccc(C2=NOC3(CCN(Cc4ccccc4)CC3)N2)c1	
81.1%		65%	c1ccc(CN2CCC3(CC2)NC(c2ccc(-c4cccnc4)cc2)=NO3)cc1	
98.2%		70.4%	c1ccc(CN2CCC3(CC2)NC(c2ccccc2)=NO3)cc1	IC50 [3]: 13.7 µM
74.9%	inactive		c1ccc(CN2CCC3(CC2)NC(c2cccs2)=NO3)cc1	
58.2%	inactive		c1ccc2cc(C3=NOC4(CCN(Cc5ccncc5)CC4)N3)ncc2c1	
71.4%	inactive		c1ccc(CN2CCC3(CC2)NC(c2ccc(-c4ccccc4)cc2)=NO3)cc1	
93.5%		60.1%	Nc1cccc(-c2ccc(C3=NOC4(CCN(Cc5ccccc5)CC4)N3)cc2)c1	
90.3%		63.7%	Brc1ccc(C2=NOC3(CCN(Cc4ccccc4)CC3)N2)cn1	
93.2%		81.3%	COc1cccc(-c2ccc(C3=NOC4(CCN(C)CC4)N3)cc2)c1	
83.1%		65.9%	Fc1cccc(C2=NOC3(CCN(Cc4ccccc4)CC3)N2)c1	
79.1%	inactive		COc1ccc(C2=NOC3(CCN(Cc4ccccc4)CC3)N2)c(OC)c1	
67%	inactive		FC(F)(F)c1cccc(-c2ccc(C3=NOC4(CCN(Cc5ccccc5)CC4)N3)cc2)c1	
93.4%		86.1%	COc1cc(-c2ccc(C3=NOC4(CCN(C)CC4)N3)cc2)ccn1	IC50 [3]: 3.3 µM
70.2%	inactive		c1ccc(C2=NOC3(CCN(Cc4ccccn4)CC3)N2)cc1	
80%	39.3%		c1ccc(CN2CCC3(CC2)NC(c2nccs2)=NO3)nc1	
75.1%	inactive		CCOC(=O)N1CCC2(CC1)NC(c1ccccc1)=NO2	
91.5%		90.8%	Brc1ccc(C2=NOC3(CCN(Cc4ccccc4)CC3)N2)cc1	IC50 [3]: 6 µM
75.2%	inactive		c1ccc(CN2CCC3(CC2)NC(c2ccc(-c4ccncc4)cc2)=NO3)cc1	
52.8%	inactive		Clc1ccc(-c2ccc(C3=NOC4(CCN(Cc5ccccc5)CC4)N3)cc2)cc1	
71.1%	inactive		c1ccc(CN2CCC3(CC2)NC(c2ccc(-c4cccs4)cc2)=NO3)cc1	

inhibition ([1]; filed as antagonist)	inhibition [2]	inhibition ([2]; filed as antagonist)	Structure (SMILES)	further results
58.2%	inactive		COc1cccc(-c2ccc(C3=NOC4(CCN(Cc5ccccc5)CC4)N3)cn2)c1	
79.6%	inactive		COc1ccc(C2=NOC3(CCN(Cc4ccccc4)CC3)N2)cc1	
90.7%		77.4%	Clc1ccc(C2=NOC3(CCN(Cc4ccccc4)CC3)N2)cc1	
72%	inactive		Cc1ccccc1-c1ccc(C2=NOC3(CCN(Cc4ccccc4)CC3)N2)cc1	
91.1%		76.6%	c1ccc(CN2CCC3(CC2)NC(c2cc4ccccc4cn2)=NO3)cc1	
83.9%		52.8%	Fc1ccc(CN2CCC3(CC2)NC(C2CC2)=NO3)cc1	
80%	37.9%		c1ccc(CN2CCC3(CC2)NC(c2cc4ccccc4cn2)=NO3)nc1	
73.5%	inactive		CC(C)(C)OC(=O)N1CCC2(CC1)NC(c1ccccc1)=NO2	
	inactive		CC(C)c1cccc(-c2ccc(C3=NOC4(CCN(Cc5ccccc5)CC4)N3)cc2)c1	inhibition [1]: 26.2%
78.3%	inactive		Fc1ccc(C2=NOC3(CCN(Cc4ccccc4)CC3)N2)cc1	
	inactive		FC(F)(F)c1ccc(-c2ccc(C3=NOC4(CCN(Cc5ccccc5)CC4)N3)cc2)cc1	inhibition [1]: 36.5%
80.4%		59%	Oc1cccc(-c2ccc(C3=NOC4(CCN(Cc5ccccc5)CC4)N3)cc2)c1	
81.1%	39.5%		CN(C)c1cccc(-c2ccc(C3=NOC4(CCN(Cc5ccccc5)CC4)N3)cc2)c1	
68.7%	inactive		c1ccc(CN2CCC3(CC2)NC(c2ccccn2)=NO3)cc1	
42.4%	inactive		Fc1ccc(-c2ccc(C3=NOC4(CCN(Cc5ccccc5)CC4)N3)cc2)cc1	
80.1%	30%		Cc1cccc(-c2ccc(C3=NOC4(CCN(Cc5ccccc5)CC4)N3)cc2)c1	
89.9%		54.7%	COc1cc(-c2ccc(C3=NOC4(CCN(Cc5ccccc5)CC4)N3)cc2)ccn1	
	inactive		c1cc(CN2CCC3(CC2)NC(c2nccs2)=NO3)ccn1	inhibition [1]: 18.8%
95.6%		76.9%	COc1cccc(-c2ccc(C3=NOC4(CCN(Cc5ccccc5)CC4)N3)cc2)c1	
83.9%		52.2%	c1ccc(CN2CCC3(CC2)NC(C2CC2)=NO3)cc1	
94.5%		65.1%	c1ccc(CN2CCC3(CC2)NC(c2nccs2)=NO3)cc1	
40.5%	inactive		COc1ccc(-c2ccc(C3=NOC4(CCN(Cc5ccccc5)CC4)N3)cc2)cc1	
	inactive		Cc1ccc(-c2ccc(C3=NOC4(CCN(Cc5ccccc5)CC4)N3)cc2)cc1	inhibition [1]: 34.9%
78.2%	inactive		CN1CCC2(CC1)NC(c1ccc(-c3cccc(N)c3)cc1)=NO2	

Structure (SMILES)	inhibition ([1]; filed as antagonist)	inhibition [2]	inhibition ([2]; filed as antagonist)	further results
CN1CCC2(CC1)NC(c1ccccc1)=NO2	96.7%		90.4%	IC50 [3]: 4.4 µM
CN1CCC2(CC1)NC(c1ccc(Br)cc1)=NO2	97.4%		91.8%	IC50 [3]: 5.4 µM; Activity [4]: inactive; Activity [5]: inactive; inhibition [6]: 20%; inhibition [7]: 24%; IC50 [8]: 32 µM; Ratio IC50 [9]: 6
CN1CCC2(CC1)NC(c1ccc(Br)nc1)=NO2	83.4%		44.1%	
CN1CCC2(CC1)NC(c1nccs1)=NO2	87.4%		69.7%	
